Source: US11613527B2, “Enzyme inhibitors” (KalVista Pharmaceuticals Limited, priority 2019, dated 2023)
In brackets after ≈: the same amount, converted by molar mass.

What was measured:
[1] = Solubility after 24 hrs in Fasted State Simulated Intestinal Fluid (FaSSIF); format: physicochemical; conditions: Fasted State Simulated Intestinal Fluid (FaSSIF), thermodynamic from solid, 24 hrs at 37° C., nominal concentration 1 mg/mL (as free base)
Summary of the method: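 Compound at nominal 1 mg/mL (as free base) in freshly prepared FaSSIF, shaken 24 h at 37 °C, ~500 rpm. After centrifugation at 15,000 g for 10 min at 37 °C, dissolved concentration measured by LCMS.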

[2] = Pharmacokinetics following a single oral dose in male Sprague-Dawley rats; format: in vivo; conditions: rat, nominal 5 mg/kg in 10% DMSO/10% cremophor/80% SWFI, plasma
Method: Pharmacokinetic studies of the compounds in Table 14 were performed to assess the pharmacokinetics following a single oral dose in male Sprague-Dawley rats. Two rats were given a single po dose of 5 mL/kg of a nominal 1 mg/mL (5 mg/kg) composition of test compound in 10% DMSO/10% cremophor/80% SWFI vehicle. Following dosing, blood samples were collected over a period of […]. Sample times were 5, 15 and 30 minutes then 1, 2, 4, 6, 8 and 12 hours. Following collection, blood samples were centrifuged and the plasma fraction analysed for concentration of test compound by LCMS.

[3] = target: Human plasma kallikrein (Homo sapiens (Human), UniProt P03952); assay: Determination of the IC50 for plasma kallikrein (fluorogenic substrate H-DPro-Phe-Arg-AFC); format: biochemical; conditions: class symbols A-D, read-out: IC50 (human PKal)
Human plasma kallikrein, sequence (P03952 391-638): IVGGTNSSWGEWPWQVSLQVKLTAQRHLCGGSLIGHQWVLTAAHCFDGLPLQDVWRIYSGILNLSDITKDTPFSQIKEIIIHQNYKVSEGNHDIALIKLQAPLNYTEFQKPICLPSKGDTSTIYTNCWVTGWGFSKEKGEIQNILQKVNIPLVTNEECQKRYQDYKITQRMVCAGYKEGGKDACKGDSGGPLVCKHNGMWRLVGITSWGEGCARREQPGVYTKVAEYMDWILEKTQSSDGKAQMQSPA
Human plasma kallikrein, sequence (P03952 20-390 partner): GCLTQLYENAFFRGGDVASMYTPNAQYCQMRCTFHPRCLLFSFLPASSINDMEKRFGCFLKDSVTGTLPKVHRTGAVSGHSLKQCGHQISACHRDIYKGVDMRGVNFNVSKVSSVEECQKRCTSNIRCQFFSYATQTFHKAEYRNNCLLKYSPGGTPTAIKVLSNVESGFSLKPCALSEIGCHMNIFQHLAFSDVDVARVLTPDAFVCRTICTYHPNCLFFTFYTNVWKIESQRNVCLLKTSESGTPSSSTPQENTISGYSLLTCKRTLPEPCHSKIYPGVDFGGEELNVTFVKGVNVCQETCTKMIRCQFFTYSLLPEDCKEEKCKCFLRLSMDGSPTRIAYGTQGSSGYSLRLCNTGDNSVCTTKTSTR
Summary of the method: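 Enzyme from a commercial source was incubated at 25° C. with H-DPro-Phe-Arg-AFC substrate and a range of test compound concentrations. Residual activity was taken as the initial reaction rate, followed by absorbance change at 410 nm, and IC50 values were derived from it.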

[4] = target: Human FXIa (Homo sapiens (Human), UniProt P03951); assay: Determination of the % inhibition for FXIa (fluorogenic substrate Z-Gly-Pro-Arg-AFC; 40 μM or IC50); format: biochemical
Human FXIa, sequence (P03951 388-625): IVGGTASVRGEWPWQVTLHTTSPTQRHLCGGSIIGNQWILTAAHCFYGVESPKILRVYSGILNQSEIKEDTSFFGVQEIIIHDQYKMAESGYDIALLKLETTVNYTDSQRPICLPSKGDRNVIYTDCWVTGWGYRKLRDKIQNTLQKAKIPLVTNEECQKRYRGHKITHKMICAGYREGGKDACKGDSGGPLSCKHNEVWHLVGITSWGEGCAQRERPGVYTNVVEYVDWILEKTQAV
Human FXIa, sequence (P03951 19-387 partner): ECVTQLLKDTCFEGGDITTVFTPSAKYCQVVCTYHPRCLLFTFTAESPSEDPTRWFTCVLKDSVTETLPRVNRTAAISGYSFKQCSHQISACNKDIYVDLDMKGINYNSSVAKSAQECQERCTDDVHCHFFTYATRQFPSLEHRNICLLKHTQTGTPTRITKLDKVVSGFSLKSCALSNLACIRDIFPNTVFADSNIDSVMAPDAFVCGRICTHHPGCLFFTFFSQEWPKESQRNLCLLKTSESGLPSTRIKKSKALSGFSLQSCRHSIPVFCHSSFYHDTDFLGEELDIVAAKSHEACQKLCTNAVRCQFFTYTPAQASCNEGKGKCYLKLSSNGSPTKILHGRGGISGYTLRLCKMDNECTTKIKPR
Summary of the method: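 Human FXIa incubated at 25 °C with fluorogenic substrate Z-Gly-Pro-Arg-AFC and test compound at 40 μM for % inhibition, or a concentration series for IC50. Residual activity taken as initial rate from absorbance change at 410 nm.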

[5] = target: Human KLK1 (Homo sapiens (Human), UniProt P06870); assay: Determination of the IC50 for KLK1 (fluorogenic substrate H-DVal-Leu-Arg-AFC); format: biochemical
Human KLK1, sequence (P06870 25-262): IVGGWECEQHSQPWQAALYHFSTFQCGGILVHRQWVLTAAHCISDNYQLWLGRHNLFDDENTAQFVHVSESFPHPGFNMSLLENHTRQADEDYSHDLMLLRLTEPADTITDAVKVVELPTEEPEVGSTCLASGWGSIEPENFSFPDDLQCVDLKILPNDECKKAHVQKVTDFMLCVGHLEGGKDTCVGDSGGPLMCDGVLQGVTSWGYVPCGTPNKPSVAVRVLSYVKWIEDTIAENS
Summary of the method: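 Human KLK1 incubated at 25° C. with fluorogenic substrate H-DVal-Leu-Arg-AFC and a range of test compound concentrations. Residual activity taken as initial reaction rate from absorbance change at 410 nm; IC50 derived from these rates.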

| SMILES | solubility at 24 h [1] [µg/mL] | Cmax [2] [ng/mL] | IC50 [3] [µM] | IC50 [4] [µM] | IC50 [5] [µM] |
| --- | --- | --- | --- | --- | --- |
| COCc1nn(Cc2ccc3c(c2)CN(C(C)C)C3)cc1C(=O)NCc1c(-n2cc(C)nn2)ccc(OC)c1F [Example 55, N-{[2-Fluoro-3-methoxy-6-(4-methyl-1,2,3-triazol-1-yl)phenyl]methyl}-1-[(2-isopropyl-1,3-dihydroisoindol-5-yl)methyl]-3-(methoxymethyl)pyrazole-4-carboxamide] | > 1000 | 136 | – | – | – |
| COc1ccc(-n2cc(C)nn2)c(CNC(=O)c2cn(Cc3ccc4c(n3)CCN(C)C4)nc2C(F)(F)F)c1F [Example 138, N-{[2-fluoro-3-methoxy-6-(4-methyl-1,2,3-triazol-1-yl)phenyl]methyl}-1-[(6-methyl-7,8-dihydro-5H-1,6-naphthyridin-2-yl)methyl]-3-(trifluoromethyl)pyrazole-4-carboxamide] | > 1000 | – | 0.01 to 0.03 | > 40 | > 40 |
| COCc1nn(Cc2ccc3c(c2)CCN(C2CCC2)C3)cc1C(=O)NCc1c(-n2cc(C)nn2)ccc(OC)c1F [Example 40, 1-[(2-cyclobutyl-3,4-dihydro-1H-isoquinolin-6-yl)methyl]-N-{[2-fluoro-3-methoxy-6-(4-methyl-1,2,3-triazol-1-yl)phenyl]methyl}-3-(methoxymethyl)pyrazole-4-carboxamide] | > 1000 | – | 0.01 to 0.03 | > 40 | > 40 |
| COc1ccc(-n2cc(C)nn2)c(CNC(=O)c2cn(Cc3ccc4c(c3)CN(C)CC4)c(C3CC3)n2)c1F [Example 149, 2-cyclopropyl-N-{[2-fluoro-3-methoxy-6-(4-methyl-1,2,3-triazol-1-yl)phenyl]methyl}-1-[(2-methyl-3,4-dihydro-1H-isoquinolin-7-yl)methyl]imidazole-4-carboxamide] | 910 (≈ 1720 µM) | – | 0.01 to 0.03 | > 40 | > 40 |
| CCN1CCc2cc(Cn3cc(C(=O)NCc4c(-n5cnc(C(F)(F)F)n5)ccc(OC)c4F)c(COC)n3)ccc2C1 [Example 51, 1-[(2-ethyl-3,4-dihydro-1H-isoquinolin-6-yl)methyl]-N-({2-fluoro-3-methoxy-6-[3-(trifluoromethyl)-1,2,4-triazol-1-yl]phenyl}methyl)-3-(methoxymethyl)pyrazole-4-carboxamide] | 770 (≈ 1280 µM) | – | < 0.01 | > 40 | > 40 |
| COCc1nn(Cc2ccc3ncccc3c2)cc1C(=O)NCc1c(-n2cnnn2)ccc(OC)c1F [RC3, N-{[2-fluoro-3-methoxy-6-(1,2,3,4-tetrazol-1-yl)phenyl]methyl}-3-(methoxymethyl)-1-(quinolin-6-ylmethyl)pyrazole-4-carboxamide, reference compound] | 20 (≈ 39.8 µM) | – | < 0.01 | 1.92 | > 40 |
| COCc1nc(C(=O)NCc2c(-n3cc(C)nn3)ccc(OC)c2F)cn1Cc1ccc2c(c1)CN(C(C)C)C2 [Example 147, N-{[2-fluoro-3-methoxy-6-(4-methyl-1,2,3-triazol-1-yl)phenyl]methyl}-1-[(2-isopropyl-1,3-dihydroisoindol-5-yl)methyl]-2-(methoxymethyl)imidazole-4-carboxamide] | > 1000 | – | 0.01 to 0.03 | > 40 | > 40 |
| COCc1nn(Cc2ccc3c(c2)CCN(C)C3)cc1C(=O)NCc1c(-n2cc(C(F)F)nn2)ccc(OC)c1F [Example 34, N-({6-[4-(difluoromethyl)-1,2,3-triazol-1-yl]-2-fluoro-3-methoxyphenyl}methyl)-3-(methoxymethyl)-1-[(2-methyl-3,4-dihydro-1H-isoquinolin-6-yl)methyl]pyrazole-4-carboxamide] | > 1000 | – | < 0.01 | > 40 | > 40 |
| COCc1nn(Cc2ccc3c(c2)CN(C(C)C)CC3)cc1C(=O)NCc1c(-n2cc(C#N)cn2)ccc(OC)c1F [Example 30, N-{[6-(4-cyanopyrazol-1-yl)-2-fluoro-3-methoxyphenyl]methyl}-1-[(2-isopropyl-3,4-dihydro-1H-isoquinolin-7-yl)methyl]-3-(methoxymethyl)pyrazole-4-carboxamide] | 920 (≈ 1610 µM) | – | < 0.01 | 39.6 | > 40 |
| COCc1nn(Cc2ccc3c(c2)CCN(C2CC2)C3)cc1C(=O)NCc1c(-n2cc(C)nn2)ccc(OC)c1F [Example 35, 1-[(2-cyclopropyl-3,4-dihydro-1H-isoquinolin-6-yl)methyl]-N-{[2-fluoro-3-methoxy-6-(4-methyl-1,2,3-triazol-1-yl)phenyl]methyl}-3-(methoxymethyl)pyrazole-4-carboxamide] | 510 (≈ 911 µM) | – | 0.03 to 0.1 | > 40 | > 40 |
| COCc1nn(Cc2ccc3c(c2)CCN(C)C3)cc1C(=O)NCc1c(-n2cnc(C(F)(F)F)n2)ccc(OC)c1F [Example 42, N-({2-fluoro-3-methoxy-6-[3-(trifluoromethyl)-1,2,4-triazol-1-yl]phenyl}methyl)-3-(methoxymethyl)-1-[(2-methyl-3,4-dihydro-1H-isoquinolin-6-yl)methyl]pyrazole-4-carboxamide] | 870 (≈ 1480 µM) | – | < 0.01 | > 40 | > 40 |
| COCc1nn(Cc2cc3c(cc2F)CCN(C)C3)cc1C(=O)NCc1c(-n2cc(C)nn2)ccc(OC)c1F [Example 118, 1-[(6-fluoro-2-methyl-3,4-dihydro-1H-isoquinolin-7-yl)methyl]-N-{[2-fluoro-3-methoxy-6-(4-methyl-1,2,3-triazol-1-yl)phenyl]methyl}-3-(methoxymethyl)pyrazole-4-carboxamide] | 930 (≈ 1690 µM) | – | < 0.01 | 9.9 | > 40 |
| COc1ccc(-n2cc(C)nn2)c(CNC(=O)c2cn(Cc3cc4n(n3)CCN(C)C4)nc2C(F)F)c1F [Example 136, 3-(difluoromethyl)-N-{[2-fluoro-3-methoxy-6-(4-methyl-1,2,3-triazol-1-yl)phenyl]methyl}-1-({5-methyl-4H,6H,7H-pyrazolo[1,5-a]pyrazin-2-yl}methyl)pyrazole-4-carboxamide] | 730 (≈ 1380 µM) | – | < 0.01 | > 40 | > 40 |
| COc1ccc(-n2cc(C)nn2)c(CNC(=O)c2cn(Cc3ccc4c(c3)CN(C)CC4)nn2)c1F [Example 152, N-{[2-fluoro-3-methoxy-6-(4-methyl-1,2,3-triazol-1-yl)phenyl]methyl}-1-[(2-methyl-3,4-dihydro-1H-isoquinolin-7-yl)methyl]-1,2,3-triazole-4-carboxamide] | 1000 (≈ 2040 µM) | – | < 0.01 | > 40 | > 40 |
| COCc1nn(Cc2cnc(N3CCCC3)nc2)cc1C(=O)NCc1c(-n2cc(C(F)F)nn2)ccc(OC)c1F [RC7, N-({6-[4-(difluoromethyl)-1,2,3-triazol-1-yl]-2-fluoro-3-methoxyphenyl}methyl)-3-(methoxymethyl)-1-{[2-(pyrrolidin-1-yl)pyrimidin-5-yl]methyl}pyrazole-4-carboxamide, reference compound] | 10 (≈ 17.5 µM) | – | < 0.01 | 0.559 | > 40 |
| CCN1CCc2ccc(Cn3cc(C(=O)NCc4c(-n5cnc(C(F)F)n5)ccc(OC)c4F)c(COC)n3)cc2C1 [Example 26, N-({6-[3-(difluoromethyl)-1,2,4-triazol-1-yl]-2-fluoro-3-methoxyphenyl}methyl)-1-[(2-ethyl-3,4-dihydro-1H-isoquinolin-7-yl)methyl]-3-(methoxymethyl)pyrazole-4-carboxamide] | > 1000 | – | < 0.01 | > 40 | > 40 |
| COc1ccc(-n2cc(C)nn2)c(CNC(=O)c2cncc(Cc3ccc4c(c3)CN(C)CC4)c2)c1F [Example 161, N-{[2-fluoro-3-methoxy-6-(4-methyl-1,2,3-triazol-1-yl)phenyl]methyl}-5-[(2-methyl-3,4-dihydro-1H-isoquinolin-7-yl)methyl]pyridine-3-carboxamide] | > 1000 | – | < 0.01 | > 40 | > 40 |
| CCN1CCc2cc(Cn3cc(C(=O)NCc4c(-n5cnc(C(F)F)n5)ccc(OC)c4F)c(COC)n3)ccc2C1 [Example 50, N-({6-[3-(difluoromethyl)-1,2,4-triazol-1-yl]-2-fluoro-3-methoxyphenyl}methyl)-1-[(2-ethyl-3,4-dihydro-1H-isoquinolin-6-yl)methyl]-3-(methoxymethyl)pyrazole-4-carboxamide] | 720 (≈ 1230 µM) | – | < 0.01 | > 40 | > 40 |
